Results reported in ChEMBL document CHEMBL4507315 (2021).

What was measured:
[1] = molecular target: Cyclin-dependent kinase 13 (Homo sapiens) (UniProt Q14004); details: Compound concentration 100.0 nM
[2] = system: Tyrosine-protein kinase ABL1 (Homo sapiens), P00519 [F317I]; details: Compound concentration 100.0 nM
[3] = molecular target: Tyrosine-protein kinase FRK (Homo sapiens) (UniProt P42685); details: Compound concentration 100.0 nM
[4] = molecular target: Serine/threonine-protein kinase BRSK1 (Homo sapiens) (UniProt Q8TDC3); details: Compound concentration 100.0 nM
[5] = molecular target: Muscarinic acetylcholine receptor M2 (Homo sapiens) (UniProt P08172); details: Compound concentration 10.0 uM
[6] = molecular target: 5-hydroxytryptamine receptor 5A (Homo sapiens) (UniProt P47898); details: Compound concentration 10.0 uM
[7] = molecular target: Serine/threonine-protein kinase MAK (Homo sapiens) (UniProt P20794); details: Compound concentration 100.0 nM
[8] = system: Mast/stem cell growth factor receptor Kit (Homo sapiens), P10721 [D816H]; details: Compound concentration 100.0 nM
[9] = system: Phosphatidylinositol 4,5-bisphosphate 3-kinase catalytic subunit alpha isoform (Homo sapiens), P42336 [C420R]; details: Compound concentration 100.0 nM
[10] = molecular target: Cyclin-dependent kinase 19 (Homo sapiens) (UniProt Q9BWU1); details: Compound concentration 100.0 nM
[11] = molecular target: Serine/threonine-protein kinase Nek6 (Homo sapiens) (UniProt Q9HC98); details: Compound concentration 100.0 nM
[12] = molecular target: Citron Rho-interacting kinase (Homo sapiens) (UniProt O14578); details: Compound concentration 100.0 nM
[13] = molecular target: Serine/threonine-protein kinase N1 (Homo sapiens) (UniProt Q16512); details: Compound concentration 100.0 nM
[14] = molecular target: Muscle, skeletal receptor tyrosine-protein kinase (Homo sapiens) (UniProt O15146); details: Compound concentration 100.0 nM
Muscle, skeletal receptor tyrosine-protein kinase (Homo sapiens), sequence (O15146 whole entry): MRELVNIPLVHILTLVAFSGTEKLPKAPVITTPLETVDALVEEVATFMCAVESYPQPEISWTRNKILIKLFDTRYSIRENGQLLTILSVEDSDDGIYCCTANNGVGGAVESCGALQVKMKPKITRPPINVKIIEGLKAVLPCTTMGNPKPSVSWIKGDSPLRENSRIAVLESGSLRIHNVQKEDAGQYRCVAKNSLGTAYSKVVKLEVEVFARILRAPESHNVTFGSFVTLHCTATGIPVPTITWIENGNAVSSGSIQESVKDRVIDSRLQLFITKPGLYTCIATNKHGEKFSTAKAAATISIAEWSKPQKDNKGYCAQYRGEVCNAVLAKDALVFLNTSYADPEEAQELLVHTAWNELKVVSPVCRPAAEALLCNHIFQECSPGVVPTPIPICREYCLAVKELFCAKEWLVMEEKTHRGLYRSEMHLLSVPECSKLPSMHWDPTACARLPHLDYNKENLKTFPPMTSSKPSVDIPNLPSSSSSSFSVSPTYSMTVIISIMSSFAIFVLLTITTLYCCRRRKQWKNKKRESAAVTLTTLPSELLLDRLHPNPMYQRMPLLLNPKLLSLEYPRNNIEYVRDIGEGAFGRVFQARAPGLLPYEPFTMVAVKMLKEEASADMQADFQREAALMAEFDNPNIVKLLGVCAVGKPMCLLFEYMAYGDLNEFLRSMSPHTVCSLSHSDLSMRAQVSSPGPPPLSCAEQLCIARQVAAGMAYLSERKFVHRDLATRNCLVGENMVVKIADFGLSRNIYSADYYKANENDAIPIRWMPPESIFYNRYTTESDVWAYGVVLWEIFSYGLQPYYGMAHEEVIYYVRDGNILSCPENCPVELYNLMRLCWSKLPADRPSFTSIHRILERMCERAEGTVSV

[15] = molecular target: Delta-type opioid receptor (Homo sapiens) (UniProt P41143); details: Compound concentration 10.0 uM
Delta-type opioid receptor (Homo sapiens), sequence (P41143 whole entry): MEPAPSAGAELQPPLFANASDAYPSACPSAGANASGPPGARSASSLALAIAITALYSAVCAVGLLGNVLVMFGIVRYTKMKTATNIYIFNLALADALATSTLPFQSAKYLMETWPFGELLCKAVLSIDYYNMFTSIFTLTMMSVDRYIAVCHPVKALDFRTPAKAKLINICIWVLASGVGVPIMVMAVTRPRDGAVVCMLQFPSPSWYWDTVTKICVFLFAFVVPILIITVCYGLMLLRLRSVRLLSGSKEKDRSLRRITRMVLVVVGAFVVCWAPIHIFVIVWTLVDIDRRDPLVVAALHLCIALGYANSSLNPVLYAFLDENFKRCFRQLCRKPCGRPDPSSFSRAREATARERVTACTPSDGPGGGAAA

[16] = system: Fibroblast growth factor receptor 3 (Homo sapiens), P22607 [G697C]; details: Compound concentration 100.0 nM
[17] = molecular target: Serine/threonine-protein kinase pim-3 (Homo sapiens) (UniProt Q86V86); details: Compound concentration 100.0 nM
[18] = molecular target: Cyclin-dependent kinase 4 (Homo sapiens) (UniProt P11802); details: Compound concentration 100.0 nM
[19] = system: Receptor-type tyrosine-protein kinase FLT3 (Homo sapiens), P36888 [UNDEFINED MUTATION]; details: Compound concentration 100.0 nM
[20] = molecular target: Inhibitor of nuclear factor kappa-B kinase subunit epsilon (Homo sapiens) (UniProt Q14164); details: Compound concentration 100.0 nM
[21] = molecular target: Casein kinase I isoform alpha-like (Homo sapiens) (UniProt Q8N752); details: Compound concentration 100.0 nM
[22] = molecular target: Proto-oncogene tyrosine-protein kinase ROS (Homo sapiens) (UniProt P08922); details: Compound concentration 100.0 nM
Proto-oncogene tyrosine-protein kinase ROS (Homo sapiens), sequence (P08922 whole entry): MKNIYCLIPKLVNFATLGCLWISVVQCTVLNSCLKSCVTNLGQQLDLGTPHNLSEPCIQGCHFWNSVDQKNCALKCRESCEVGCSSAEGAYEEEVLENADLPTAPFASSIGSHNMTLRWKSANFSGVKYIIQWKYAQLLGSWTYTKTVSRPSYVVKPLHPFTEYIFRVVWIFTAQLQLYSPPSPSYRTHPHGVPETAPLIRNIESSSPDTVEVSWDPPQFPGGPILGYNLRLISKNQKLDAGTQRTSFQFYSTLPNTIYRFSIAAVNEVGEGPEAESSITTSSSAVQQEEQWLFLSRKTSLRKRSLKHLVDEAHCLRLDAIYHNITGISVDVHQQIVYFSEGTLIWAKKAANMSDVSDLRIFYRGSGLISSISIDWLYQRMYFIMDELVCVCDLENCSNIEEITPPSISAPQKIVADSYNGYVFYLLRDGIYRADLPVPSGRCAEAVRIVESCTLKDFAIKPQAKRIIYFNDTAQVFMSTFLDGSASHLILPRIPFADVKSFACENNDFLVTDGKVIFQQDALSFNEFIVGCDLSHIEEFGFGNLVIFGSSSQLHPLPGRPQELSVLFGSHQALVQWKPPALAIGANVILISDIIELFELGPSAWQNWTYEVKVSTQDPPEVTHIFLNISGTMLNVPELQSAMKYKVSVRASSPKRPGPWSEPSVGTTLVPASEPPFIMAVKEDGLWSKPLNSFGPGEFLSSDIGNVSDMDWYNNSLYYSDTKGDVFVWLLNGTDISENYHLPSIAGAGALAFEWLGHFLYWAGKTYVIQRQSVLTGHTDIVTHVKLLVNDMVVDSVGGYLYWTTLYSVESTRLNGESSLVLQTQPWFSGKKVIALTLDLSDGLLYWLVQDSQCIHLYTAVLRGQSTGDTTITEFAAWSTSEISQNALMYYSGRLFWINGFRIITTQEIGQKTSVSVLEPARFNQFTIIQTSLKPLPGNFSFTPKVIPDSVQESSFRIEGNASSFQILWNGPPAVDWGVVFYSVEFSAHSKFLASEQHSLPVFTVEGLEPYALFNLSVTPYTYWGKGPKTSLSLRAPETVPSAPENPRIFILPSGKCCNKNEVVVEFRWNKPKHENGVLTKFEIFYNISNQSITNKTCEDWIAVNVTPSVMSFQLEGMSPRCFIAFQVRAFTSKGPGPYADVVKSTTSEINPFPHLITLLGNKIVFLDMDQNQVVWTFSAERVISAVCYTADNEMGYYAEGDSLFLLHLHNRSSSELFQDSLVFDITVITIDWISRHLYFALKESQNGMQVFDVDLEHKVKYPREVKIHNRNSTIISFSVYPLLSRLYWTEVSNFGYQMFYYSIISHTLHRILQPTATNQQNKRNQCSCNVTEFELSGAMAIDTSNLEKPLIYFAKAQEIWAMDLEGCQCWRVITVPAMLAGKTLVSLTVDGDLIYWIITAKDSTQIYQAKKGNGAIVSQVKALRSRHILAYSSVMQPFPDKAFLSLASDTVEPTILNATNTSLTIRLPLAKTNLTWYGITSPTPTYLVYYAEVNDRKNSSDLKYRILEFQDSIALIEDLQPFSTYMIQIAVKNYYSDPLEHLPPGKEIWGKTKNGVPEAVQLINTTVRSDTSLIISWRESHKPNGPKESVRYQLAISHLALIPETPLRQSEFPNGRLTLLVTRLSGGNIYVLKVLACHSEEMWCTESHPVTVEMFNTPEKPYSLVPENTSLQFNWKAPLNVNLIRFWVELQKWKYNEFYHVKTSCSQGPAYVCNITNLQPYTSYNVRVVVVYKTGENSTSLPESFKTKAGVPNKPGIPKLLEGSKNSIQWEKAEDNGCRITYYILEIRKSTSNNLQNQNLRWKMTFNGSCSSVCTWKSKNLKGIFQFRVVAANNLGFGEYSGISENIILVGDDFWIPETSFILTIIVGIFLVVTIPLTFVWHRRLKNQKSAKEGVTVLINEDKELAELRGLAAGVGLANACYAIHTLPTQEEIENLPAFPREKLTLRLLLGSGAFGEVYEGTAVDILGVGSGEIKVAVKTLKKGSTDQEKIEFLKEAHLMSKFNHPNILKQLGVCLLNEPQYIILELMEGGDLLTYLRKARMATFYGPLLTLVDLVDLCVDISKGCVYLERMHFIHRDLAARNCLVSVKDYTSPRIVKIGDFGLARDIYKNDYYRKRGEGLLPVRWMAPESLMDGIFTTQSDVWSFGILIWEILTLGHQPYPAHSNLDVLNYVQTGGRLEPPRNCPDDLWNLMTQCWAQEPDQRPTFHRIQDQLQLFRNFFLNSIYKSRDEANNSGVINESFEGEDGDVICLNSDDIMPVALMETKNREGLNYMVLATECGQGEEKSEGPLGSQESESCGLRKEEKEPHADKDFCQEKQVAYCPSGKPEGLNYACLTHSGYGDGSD

[23] = molecular target: Muscarinic acetylcholine receptor M4 (Homo sapiens) (UniProt P08173); details: Compound concentration 10.0 uM
[24] = molecular target: Serine/threonine-protein kinase 3 (Homo sapiens) (UniProt Q13188); details: Compound concentration 100.0 nM
[25] = molecular target: Serine/threonine-protein kinase ICK (Homo sapiens) (UniProt Q9UPZ9); details: Compound concentration 100.0 nM
[26] = molecular target: 5-hydroxytryptamine receptor 6 (Homo sapiens) (UniProt P50406); details: Compound concentration 10.0 uM
[27] = molecular target: MAP kinase-interacting serine/threonine-protein kinase 2 (Homo sapiens) (UniProt Q9HBH9); details: Compound concentration 100.0 nM
[28] = molecular target: Dual specificity mitogen-activated protein kinase kinase 2 (Homo sapiens) (UniProt P36507); details: Compound concentration 100.0 nM
[29] = molecular target: cGMP-dependent protein kinase 2 (Homo sapiens) (UniProt Q13237); details: Compound concentration 100.0 nM
[30] = molecular target: Epidermal growth factor receptor (Homo sapiens) (UniProt P00533); details: Compound concentration 100.0 nM
[31] = molecular target: Mitogen-activated protein kinase kinase kinase 14 (Homo sapiens) (UniProt Q99558); details: Compound concentration 100.0 nM
[32] = molecular target: Cyclin-dependent kinase 14 (Homo sapiens) (UniProt O94921); details: Compound concentration 100.0 nM
[33] = molecular target: Protein kinase C epsilon type (Homo sapiens) (UniProt Q02156); details: Compound concentration 100.0 nM
[34] = molecular target: Receptor-type tyrosine-protein kinase FLT3 (Homo sapiens) (UniProt P36888); details: Compound concentration 100.0 nM
Receptor-type tyrosine-protein kinase FLT3 (Homo sapiens), sequence (P36888 whole entry): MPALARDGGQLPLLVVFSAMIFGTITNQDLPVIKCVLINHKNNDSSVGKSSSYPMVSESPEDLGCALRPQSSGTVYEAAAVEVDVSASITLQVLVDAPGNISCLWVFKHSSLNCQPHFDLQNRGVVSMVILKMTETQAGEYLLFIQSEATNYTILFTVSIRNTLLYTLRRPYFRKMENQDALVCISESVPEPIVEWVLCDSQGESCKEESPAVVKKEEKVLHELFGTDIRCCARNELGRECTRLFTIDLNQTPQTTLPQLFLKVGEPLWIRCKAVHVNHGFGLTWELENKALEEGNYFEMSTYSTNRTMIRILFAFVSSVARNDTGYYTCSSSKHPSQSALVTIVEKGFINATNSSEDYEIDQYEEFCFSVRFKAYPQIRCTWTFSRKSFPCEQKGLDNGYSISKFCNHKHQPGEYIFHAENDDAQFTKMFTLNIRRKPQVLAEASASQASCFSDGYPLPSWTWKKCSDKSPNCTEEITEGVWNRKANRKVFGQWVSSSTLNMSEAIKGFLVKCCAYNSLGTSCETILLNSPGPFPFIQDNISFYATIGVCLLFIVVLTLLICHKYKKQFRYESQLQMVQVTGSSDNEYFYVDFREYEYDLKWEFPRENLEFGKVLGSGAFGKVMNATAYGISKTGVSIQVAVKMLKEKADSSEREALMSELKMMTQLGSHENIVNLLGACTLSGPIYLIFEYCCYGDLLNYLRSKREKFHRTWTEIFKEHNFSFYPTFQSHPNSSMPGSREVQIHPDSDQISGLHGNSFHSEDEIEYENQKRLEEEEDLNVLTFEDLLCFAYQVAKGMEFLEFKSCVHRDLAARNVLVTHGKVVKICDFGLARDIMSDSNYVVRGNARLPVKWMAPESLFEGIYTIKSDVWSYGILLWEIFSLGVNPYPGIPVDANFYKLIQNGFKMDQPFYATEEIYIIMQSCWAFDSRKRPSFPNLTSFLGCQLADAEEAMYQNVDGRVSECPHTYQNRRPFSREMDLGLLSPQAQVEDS

[35] = system: Epidermal growth factor receptor (Homo sapiens), P00533 [UNDEFINED MUTATION]; details: Compound concentration 100.0 nM
[36] = molecular target: Myosin light chain kinase 2, skeletal/cardiac muscle (Homo sapiens) (UniProt Q9H1R3); details: Compound concentration 100.0 nM
[37] = molecular target: Fibroblast growth factor receptor 4 (Homo sapiens) (UniProt P22455); details: Compound concentration 100.0 nM
[38] = molecular target: Serine/threonine-protein kinase 35 (Homo sapiens) (UniProt Q8TDR2); details: Compound concentration 100.0 nM
[39] = molecular target: Ribosomal protein S6 kinase beta-1 (Homo sapiens) (UniProt P23443); details: Compound concentration 100.0 nM
Ribosomal protein S6 kinase beta-1 (Homo sapiens), sequence (P23443 whole entry, looked up): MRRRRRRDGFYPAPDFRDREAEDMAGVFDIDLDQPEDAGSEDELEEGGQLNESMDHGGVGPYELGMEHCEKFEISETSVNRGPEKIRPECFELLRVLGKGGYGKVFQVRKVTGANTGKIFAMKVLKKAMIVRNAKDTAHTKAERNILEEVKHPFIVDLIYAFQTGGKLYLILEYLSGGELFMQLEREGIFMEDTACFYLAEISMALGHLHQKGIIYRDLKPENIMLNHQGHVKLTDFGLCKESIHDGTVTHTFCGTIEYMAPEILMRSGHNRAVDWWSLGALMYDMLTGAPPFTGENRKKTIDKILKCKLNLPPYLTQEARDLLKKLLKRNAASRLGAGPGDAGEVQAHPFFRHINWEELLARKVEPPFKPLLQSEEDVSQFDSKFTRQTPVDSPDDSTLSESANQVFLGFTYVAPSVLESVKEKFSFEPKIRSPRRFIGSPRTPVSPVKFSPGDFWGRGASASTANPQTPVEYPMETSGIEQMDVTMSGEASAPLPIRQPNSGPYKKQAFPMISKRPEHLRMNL

[40] = molecular target: Mast/stem cell growth factor receptor Kit (Homo sapiens) (UniProt P10721); details: Compound concentration 100.0 nM
[41] = molecular target: Serine/threonine-protein kinase Nek10 (Homo sapiens) (UniProt Q6ZWH5); details: Compound concentration 100.0 nM
[42] = molecular target: Serine/threonine-protein kinase ULK3 (Homo sapiens) (UniProt Q6PHR2); details: Compound concentration 100.0 nM
[43] = molecular target: STE20-like serine/threonine-protein kinase (Homo sapiens) (UniProt Q9H2G2); details: Compound concentration 100.0 nM
[44] = molecular target: Receptor-type tyrosine-protein kinase FLT3 (Homo sapiens) (UniProt P36888); details: Compound concentration 100.0 nM; remark: listed apart in the source
[45] = molecular target: Protein-tyrosine kinase 2-beta (Homo sapiens) (UniProt Q14289); details: Compound concentration 100.0 nM

Nc1c(C(=O)NCc2ccc(C(=O)NCCCC3CCCCC3)cc2)cnn1-c1ccccc1 [SR-318]
inactive: residual activity [1] 79% | residual activity [2] 92% | residual activity [3] 100% | residual activity [4] 94% | inhibition [5] 22.5% | inhibition [6] 9.6% | residual activity [7] 100% | residual activity [8] 61% | residual activity [9] 100% | residual activity [10] 99% | residual activity [11] 100% | residual activity [12] 100% | residual activity [13] 96% | residual activity [14] 97% | inhibition [15] 24.1% | residual activity [16] 87% | residual activity [17] 91% | residual activity [18] 100% | residual activity [19] 90% | residual activity [20] 100% | residual activity [21] 98% | residual activity [22] 83% | inhibition [23] -4.14% | residual activity [24] 100% | residual activity [25] 100% | inhibition [26] 26.8% | residual activity [27] 100% | residual activity [28] 100% | residual activity [29] 96% | residual activity [30] 99% | residual activity [31] 100% | residual activity [32] 100% | residual activity [33] 100% | residual activity [34] 100% | residual activity [35] 98% | residual activity [36] 100% | residual activity [37] 97% | residual activity [38] 100% | residual activity [39] 100% | residual activity [40] 100% | residual activity [41] 100% | residual activity [42] 100% | residual activity [43] 80% | residual activity [44] 90% | residual activity [45] 99%

O=C(NCCCC1CCCCC1)c1ccc(CNC(=O)c2cnn(-c3ccccc3)c2C(F)(F)F)cc1 [SR-321]
inactive: residual activity [1] 100% | residual activity [2] 100% | residual activity [3] 77% | residual activity [4] 100% | inhibition [5] 19.3% | inhibition [6] 17% | residual activity [7] 100% | residual activity [8] 78% | residual activity [9] 85% | residual activity [10] 96% | residual activity [11] 83% | residual activity [12] 86% | residual activity [13] 100% | residual activity [14] 100% | inhibition [15] 12.9% | residual activity [16] 100% | residual activity [17] 100% | residual activity [18] 100% | residual activity [19] 100% | residual activity [20] 78% | residual activity [21] 94% | residual activity [22] 100% | inhibition [23] 20.1% | residual activity [24] 100% | residual activity [25] 79% | inhibition [26] -0.05% | residual activity [27] 100% | residual activity [28] 93% | residual activity [29] 89% | residual activity [30] 100% | residual activity [31] 90% | residual activity [32] 100% | residual activity [33] 88% | residual activity [34] 100% | residual activity [35] 100% | residual activity [36] 100% | residual activity [37] 100% | residual activity [38] 100% | residual activity [39] 96% | residual activity [40] 100% | residual activity [41] 100% | residual activity [42] 100% | residual activity [43] 100% | residual activity [44] 87% | residual activity [45] 93%
